Assay [1] has as its target T1, Dipeptidyl peptidase 4 (Homo sapiens, UniProt P27487). Format: cell-free, Serum.
Target sequence in this assay (P27487 whole entry): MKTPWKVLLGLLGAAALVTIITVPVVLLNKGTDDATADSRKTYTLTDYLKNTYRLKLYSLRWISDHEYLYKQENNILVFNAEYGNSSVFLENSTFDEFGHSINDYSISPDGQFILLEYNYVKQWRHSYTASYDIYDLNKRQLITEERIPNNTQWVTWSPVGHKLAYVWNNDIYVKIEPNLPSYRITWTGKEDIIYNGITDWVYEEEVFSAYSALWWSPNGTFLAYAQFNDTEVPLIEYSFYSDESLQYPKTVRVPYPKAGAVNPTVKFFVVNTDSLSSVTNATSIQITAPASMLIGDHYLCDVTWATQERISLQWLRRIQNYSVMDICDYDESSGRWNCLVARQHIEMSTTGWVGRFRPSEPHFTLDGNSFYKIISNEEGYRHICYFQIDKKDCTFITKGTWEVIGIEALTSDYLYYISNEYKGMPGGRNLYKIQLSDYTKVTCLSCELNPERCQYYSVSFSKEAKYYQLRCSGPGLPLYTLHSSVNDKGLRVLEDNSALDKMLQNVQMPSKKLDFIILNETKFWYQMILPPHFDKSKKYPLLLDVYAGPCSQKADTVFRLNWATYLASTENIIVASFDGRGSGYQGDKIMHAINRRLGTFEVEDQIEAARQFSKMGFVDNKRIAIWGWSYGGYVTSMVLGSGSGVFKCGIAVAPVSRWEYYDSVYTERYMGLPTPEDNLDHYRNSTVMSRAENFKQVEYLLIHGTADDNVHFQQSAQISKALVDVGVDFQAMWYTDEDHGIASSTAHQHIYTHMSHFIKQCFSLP
A short description of assay [2]: Anti-glycation activity assessed as inhibition of AGE formation by measuring decrease in glycated BSA protein level at 1000 uM incubated for 24 hrs in presence of glucose by fluorescence based assay relative to control. Format: functional.
A short description of assay [3]: Anti-glycation activity assessed as inhibition of AGE formation by measuring decrease in glycated BSA protein level at 100 uM incubated for 24 hrs in presence of glucose by fluorescence based assay relative to control. Format: functional.
A short description of assay [4]: Anti-glycation activity assessed as inhibition of AGE formation by measuring decrease in glycated BSA protein level incubated for 24 hrs in presence of glucose by fluorescence based assay. Format: functional.
Assay [5] in a line: Metal chelating activity assessed as inhibition of Cu2+ ion-induced oxidation of ascorbic acid compound treated with CuSO4.5H2O for 5 mins followed by ascorbate addition and measured immediately by spectrophotometric analysis.
For assay [6], the system named is Rattus norvegicus. Put plainly: Ex vivo inhibition of DPP4 in Wistar rat serum assessed as p-nitroaniline formation at 10 mg/kg, po by incubating compound-treated serum with Gly-Pro-p-nitroanilide substrate and measured for 30 mins by microplate reader analysis. Format: functional, organism-based.
The target of assay [7] is T1, Dipeptidyl peptidase 4. Particulars: Serum, at 100 µM.
Target sequence in this assay (P27487 whole entry, looked up): as the sequence (P27487 whole entry) above
In assay [8] the test system is Rattus norvegicus. Put plainly: Ex vivo inhibition of DPP4 in Wistar rat serum assessed as decrease in p-nitroaniline formation at 10 mg/kg, po by incubating 0 to 4 hrs compound-treated serum with Gly-Pro-p-nitroanilide substrate and measured for 30 mins by microplate reader analysis. Format: functional, organism-based.
For assay [9], the system named is Rattus norvegicus. Put plainly: Ex vivo inhibition of DPP4 in Wistar rat serum assessed as decrease in p-nitroaniline formation at 10 mg/kg, po by incubating 0 to 2 hrs compound-treated serum with Gly-Pro-p-nitroanilide substrate and measured for 30 mins by microplate reader analysis. Format: functional, organism-based.

The record followed here is ChEMBL document CHEMBL4312014, “Nitrothiadiazolo[3,2-a]pyrimidines as promising antiglycating agents” (Eur J Med Chem, 2020).

SMILES strings stand for the structures. Activity calls are given as the source filed them. The rule behind the calls is not given here.

The IC50 is the concentration that inhibits the measured activity by half. As a reminder, the inhibition is the percentage by which the read-out fell short of the control.

Consider `O=c1c([N+](=O)[O-])c(NCCc2ccc(O)cc2)nc2scnn12`, for which the IC50 against Dipeptidyl peptidase 4 [1] was above 100 µM; in assay [4], 167 µM; in [5] it was above 200 µM. Also, the inhibition in assay [2] worked out at 76.8%; in [3] it was 43.8%; on Dipeptidyl peptidase 4 [7], 42.1%. Besides, the inhibition result in the assay with Rattus norvegicus [6] was “Active”.

Consider `O=C(O)CCCCC1CCSS1` (stereo not drawn) [LIPOIC ACID, ALPHA], for which the IC50 in assay [5] came to 68.9 µM.

With `CC(C)CNc1nc2scnn2c(=O)c1[N+](=O)[O-]`, the inhibition in assay [2] came out at 73.9%; in assay [3], 23.1%. Besides, the IC50 in assay [4] stood at 290 µM; in assay [5], 37.2 µM. Moreover, the inhibition result in the assay with Rattus norvegicus [6] was “Active”.

For the compound `CCCCNc1nc2scnn2c(=O)c1[N+](=O)[O-]`, the inhibition in assay [2] is 77%; in assay [3], 32.1%. Further, the figures for the IC50 in assay [4] and in [5] were 204 µM and 79.1 µM, respectively. The inhibition entry in the assay with Rattus norvegicus [6] is “Active”.

With `N#C[C@@H]1CCCN1C(=O)CNC12CC3CC(CC(O)(C3)C1)C2`, the inhibition result in the assay on Rattus norvegicus [8] was “Active”.

For `CC(C)(C)Nc1nc2scnn2c(=O)c1[N+](=O)[O-]`, the inhibition was 63.8% in [2] and 21.3% in assay [3]. The IC50 in assay [4] was 181 µM; in [5] it was 56 µM. For the same compound, in the assay with Rattus norvegicus [6], the inhibition result was “Active”.

In the case of `O=c1c([N+](=O)[O-])c(NCCCO)nc2scnn12`, the inhibition in [2] worked out at 32.7%; in assay [3], 16.1%. Besides, the IC50 in assay [5] is above 200 µM. In the assay on Rattus norvegicus [6], the inhibition result is “Active”.

On to `CCCNc1nc2scnn2c(=O)c1[N+](=O)[O-]`, for which the inhibition in assay [2] turned out to be 52.5%; in [3], 14.9%. Also, the IC50 in [5] was found to be 62 µM. Besides, the inhibition entry in the assay on Rattus norvegicus [6] is “Active”.

On to `CC1(C)OCC(CNc2nc3scnn3c(=O)c2[N+](=O)[O-])O1` (stereo not drawn), for which the results for the inhibition in [2] and in assay [3] were 71.4% and 42.1%, respectively. The figures for the IC50 in [4] and in assay [5] were 209 µM and 48.1 µM, respectively. Further, in the assay with Rattus norvegicus [6], the inhibition result was “Active”.

With `O=c1c([N+](=O)[O-])c(NCCc2ccc(Cl)cc2)nc2scnn12`, the IC50 on Dipeptidyl peptidase 4 [1] is 55.9 µM; in assay [4] it was 134 µM; in assay [5], above 200 µM. The inhibition result in the assay with Rattus norvegicus [9] was “Active”. For the same compound, the inhibition is 87.4% in assay [2], 48.8% in assay [3] and 69.8% against Dipeptidyl peptidase 4 [7].

As for `CC(=O)OCCNc1nc2scnn2c(=O)c1[N+](=O)[O-]`, the results for the inhibition in assay [2] and in assay [3] were 50.8% and 44.8%, respectively. The IC50 in [5] was above 200 µM. The inhibition entry with Rattus norvegicus [6] is “Active”.

In the case of `CC(C)Nc1nc2scnn2c(=O)c1[N+](=O)[O-]`, the inhibition in assay [2] was 69.6%; in assay [3], 30%. Further, the figures for the 50% inhibitory concentration (IC50) in assay [4] and in [5] were 325 µM and above 200 µM, respectively. For the same compound, the inhibition result in the assay on Rattus norvegicus [6] is “Active”.

`CCc1ccc(CCOc2ccc(CC3SC(=O)NC3=O)cc2)nc1` (stereo not drawn) [PIOGLITAZONE]: the IC50 in assay [5] was 44.1 µM.

Regarding `CC(=O)OCCCNc1nc2scnn2c(=O)c1[N+](=O)[O-]`, the inhibition was 37.2% in assay [2] and 12.5% in assay [3]. Moreover, the IC50 in assay [5] amounted to 115 µM. Also, the inhibition entry in the assay with Rattus norvegicus [6] was “Active”.

`O=c1c([N+](=O)[O-])c(NCC(O)CO)nc2scnn12` (stereo not drawn): the inhibition in [2] is 33.7%; in assay [3] it was 10.3%. Further, the IC50 in assay [5] was above 200 µM. For the same compound, in the assay with Rattus norvegicus [6], the inhibition entry was “Active”.

With `CC(=O)OCCCCNc1nc2scnn2c(=O)c1[N+](=O)[O-]`, the inhibition in assay [2] is 37.5%; in [3], 11.5%. In addition, in [5], the IC50 is above 200 µM. Further, the inhibition entry in the assay on Rattus norvegicus [6] was “Active”.

`N=C(N)NN` [PIMAGEDINE]: the values for the inhibition in assay [2] and in assay [3] were 57.8% and 6%, respectively. Besides, the 50% inhibitory concentration (IC50) was 765 µM in assay [4] and above 1000 µM in assay [5].

In the case of `O=c1c([N+](=O)[O-])c(NCCCCO)nc2scnn12`, the values for the inhibition in assay [2] and in assay [3] were 43.6% and 26.1%, respectively. Further, the half-inhibitory concentration (IC50) in assay [5] is above 200 µM. The inhibition entry in the assay with Rattus norvegicus [6] was “Active”.

For the compound `O=c1c([N+](=O)[O-])c(NCCO)nc2scnn12`, the inhibition came out at 44.4% in assay [2] and 29.5% in assay [3]. For the same compound, the IC50 in assay [5] came out at 86.1 µM. The inhibition result in the assay on Rattus norvegicus [6] is “Active”.
